Source: publication PMC12736255, “Reinvestigating Pyrrol-2-One-Based Compounds: From Antimicrobial Agents to Promising Antitumor Candidates” (Pharmaceuticals, 2025)

Key:
MDA-MB-468 = assay: NCI-60 single-dose screen; assay type: cell-based, human; details: MDA-MB-468, 10^–5 M
How it was run: (§1)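 The National Cancer Institute screened these compounds at a fixed 10^−5 M in its sixty-line human tumor cell panel.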

SF-295 = assay: NCI-60 single-dose screen; assay type: cell-based, human; details: SF-295, 10^–5 M
How it was run: as §1

UO-31 = assay: NCI-60 single-dose screen; assay type: cell-based, human; details: UO-31, 10^–5 M
How it was run: as §1

BT-549 = assay: NCI-60 single-dose screen; assay type: cell-based, human; details: BT-549, 10^–5 M
How it was run: as §1

U251 [1] = assay: NCI-60 single-dose screen; assay type: cell-based, human; details: U251, 10^–5 M
How it was run: as §1

HOP-62 = assay: NCI-60 single-dose screen; assay type: cell-based, human; details: HOP-62, 10^–5 M
How it was run: as §1

M14 = assay: NCI-60 single-dose screen; assay type: cell-based; details: Homo sapiens; M14, 10^–5 M; read-out: GI (%)
How it was run: as §1

RPMI-8226 [2] = assay: NCI-60 single-dose screen; assay type: cell-based; details: Homo sapiens; RPMI-8226, 10^–5 M; read-out: GI (%)
How it was run: as §1

TK-10 = assay: NCI-60 single-dose screen; assay type: cell-based; details: Homo sapiens; TK-10, 10^–5 M; read-out: GI (%)
How it was run: as §1

NCI-H522 = assay: NCI-60 single-dose screen; assay type: cell-based; details: Homo sapiens; NCI-H522, 10^–5 M; read-out: GI (%)
How it was run: as §1

OVCAR-4 [3] = assay: NCI-60 single-dose screen; assay type: cell-based; details: Homo sapiens; OVCAR-4, 10^–5 M; read-out: GI (%)
How it was run: as §1

MDA-MB-435 = assay: NCI-60 single-dose screen; assay type: cell-based; details: Homo sapiens; MDA-MB-435, 10^–5 M; read-out: GI (%)
How it was run: as §1

HS 578T = assay: NCI-60 single-dose screen; assay type: cell-based; details: Homo sapiens, 10^–5 M, read-out: GI (%)
How it was run: as §1

SR = assay: NCI-60 single-dose screen; assay type: cell-based; details: Homo sapiens, 10^–5 M, read-out: GI (%)
How it was run: as §1

DU-145 = assay: NCI-60 single-dose screen; assay type: cell-based; details: Homo sapiens; DU-145, 10^–5 M; read-out: GI (%)
How it was run: as §1

NCI-H460 = assay: NCI-60 single-dose screen; assay type: cell-based; details: Homo sapiens; NCI-H460, 10^–5 M; read-out: GI (%)
How it was run: as §1

T-47D = assay: NCI-60 single-dose screen; assay type: cell-based; details: Homo sapiens, T47D, 10^–5 M, read-out: GI (%)
How it was run: as §1

MALME-3M = assay: NCI-60 single-dose screen; assay type: cell-based; details: Homo sapiens, 10^–5 M, read-out: GI (%)
How it was run: as §1

MOLT-4 [4] = assay: NCI-60 single-dose screen; assay type: cell-based; details: Homo sapiens; MOLT-4, 10^–5 M; read-out: GI (%)
How it was run: as §1

SF-268 [5] = assay: NCI-60 single-dose screen; assay type: cell-based; details: Homo sapiens; SF-268, 10^–5 M; read-out: GI (%)
How it was run: as §1

HT-29 = assay: NCI-60 single-dose screen; assay type: cell-based; details: Homo sapiens; HT-29, 10^–5 M; read-out: GI (%)
How it was run: as §1

[6] = system: Gram-positive and Gram-negative bacteria; parameters: method as in PMID 38398524; details: cited from earlier work
SF-268 [7] = assay: NCI-60 5-dose screen; assay type: cell-based, human
NCI-H226 = assay: NCI-60 5-dose screen; assay type: cell-based, human
MOLT-4 [8] = assay: NCI-60 5-dose screen; assay type: cell-based, human
OVCAR-4 [9] = assay: NCI-60 5-dose screen; assay type: cell-based, human
RPMI-8226 [10] = assay: NCI-60 5-dose screen; assay type: cell-based, human
HOP-92 = assay: NCI-60 5-dose screen; assay type: cell-based, human
IGROV1 = assay: NCI-60 5-dose screen; assay type: cell-based, human
RXF 393 = assay: NCI-60 5-dose screen; assay type: cell-based, human
A498 = assay: NCI-60 5-dose screen; assay type: cell-based, human
SW-620 = assay: NCI-60 5-dose screen; assay type: cell-based, human
HT29 = assay: NCI-60 5-dose screen; assay type: cell-based, human
MDA-MB-231/ATCC = assay: NCI-60 5-dose screen; assay type: cell-based, human
U251 [11] = assay: NCI-60 5-dose screen; assay type: cell-based, human
PC-3 = assay: NCI-60 5-dose screen; assay type: cell-based, human
ACHN = assay: NCI-60 single-dose screen; assay type: cell-based; details: Homo sapiens, 10^–5 M, read-out: GI (%)
How it was run: as §1

[12] = Homo sapiens, read-out: LC50 (the source's name)

O=C1C(Nc2ccc(I)cc2)=CC(c2ccc(O)cc2)N1c1ccc(I)cc1 (stereo not shown) [3g]
GI (%) (MDA-MB-468): 96%
GI (%) (SF-295): 48%
GI (%) (UO-31): 54%
GI (%) (BT-549): 54%
GI (%) (U251 [1]): 29%
GI (%) (HOP-62): 5%
inhibition at 10 µM (M14): 52%
inhibition at 10 µM (RPMI-8226 [2]): 100%
inhibition at 10 µM (TK-10): 43%
inhibition at 10 µM (NCI-H522): 70%
inhibition at 10 µM (OVCAR-4 [3]): 85%
inhibition at 10 µM (MDA-MB-435): 38%
inhibition at 10 µM (HS 578T): 100%
inhibition at 10 µM (SR): 100%
inhibition at 10 µM (DU-145): 58%
inhibition at 10 µM (NCI-H460): 69%
inhibition at 10 µM (T-47D): 80%
inhibition at 10 µM (MALME-3M): 83%
inhibition at 10 µM (MOLT-4 [4]): 100%
inhibition at 10 µM (SF-268 [5]): 35%
inhibition at 10 µM (HT-29): 96%
antibacterial activity (in words) [6]: highest antibacterial activity

O=C1C(Nc2ccc(I)cc2)=CC(c2ccc(O)c(O)c2)N1c1ccc(I)cc1 (stereo not shown) [3h]
TGI (SF-268 [7]): >100 µM
GI50 (SF-268 [7]; Homo sapiens): 6.04 µM
CC50 (SF-268 [7]; [12]): > 100 µM
TGI (NCI-H226): >100 µM
GI50 (NCI-H226; Homo sapiens): > 100 µM
CC50 (NCI-H226; [12]): > 100 µM
TGI (MOLT-4 [8]): 4.17 µM
GI50 (MOLT-4 [8]; Homo sapiens): 2080 nM
CC50 (MOLT-4 [8]; [12]): 8.35 µM
TGI (OVCAR-4 [9]): >100 µM
GI50 (OVCAR-4 [9]; Homo sapiens): 3.27 µM
CC50 (OVCAR-4 [9]; [12]): > 100 µM
TGI (RPMI-8226 [10]): 6.01 µM
GI50 (RPMI-8226 [10]; Homo sapiens): 2400 nM
CC50 (RPMI-8226 [10]; [12]): > 100 µM
TGI (HOP-92): 8.97 µM
GI50 (HOP-92; Homo sapiens): 4.08 µM
CC50 (HOP-92; [12]): > 100 µM
TGI (IGROV1): >100 µM
GI50 (IGROV1; Homo sapiens, IGROV-1): > 100 µM
CC50 (IGROV1; Homo sapiens, IGROV-1, read-out: LC50 (the source's name)): > 100 µM
GI (%) (MDA-MB-468): 100 ^h1%
GI (%) (SF-295): 56%
GI (%) (UO-31): 54%
GI (%) (BT-549): 81%
GI (%) (U251 [1]): 58%
GI (%) (HOP-62): 82%
TGI (RXF 393): >100 µM
GI50 (RXF 393; Homo sapiens): 6.25 µM
CC50 (RXF 393; [12]): > 100 µM
TGI (A498): >100 µM
GI50 (A498; Homo sapiens): > 100 µM
CC50 (A498; [12]): > 100 µM
TGI (SW-620): >100 µM
GI50 (SW-620; Homo sapiens): > 100 µM
CC50 (SW-620; [12]): > 100 µM
TGI (HT29): >100 µM
GI50 (HT29; Homo sapiens, HT-29): 8.8 µM
CC50 (HT29; Homo sapiens, HT-29, read-out: LC50 (the source's name)): > 100 µM
TGI (MDA-MB-231/ATCC): >100 µM
GI50 (MDA-MB-231/ATCC; Homo sapiens): > 100 µM
CC50 (MDA-MB-231/ATCC; [12]): > 100 µM
TGI (U251 [11]): >100 µM
GI50 (U251 [11]; Homo sapiens, U-251): > 100 µM
LC50 (50% lethal concentration) (U251 [11]; Homo sapiens, U-251): > 100 µM
TGI (PC-3): >100 µM
GI50 (PC-3; Homo sapiens): 8.83 µM
CC50 (PC-3; [12]): > 100 µM
inhibition at 10 µM (M14): 99%
inhibition at 10 µM (RPMI-8226 [2]): 100%
inhibition at 10 µM (TK-10): 50%
inhibition at 10 µM (NCI-H522): 82%
inhibition at 10 µM (OVCAR-4 [3]): 100%
inhibition at 10 µM (MDA-MB-435): 73%
inhibition at 10 µM (ACHN): 61%
inhibition at 10 µM (HS 578T): 63%
inhibition at 10 µM (SR): 100%
inhibition at 10 µM (DU-145): 40%
inhibition at 10 µM (NCI-H460): 98%
inhibition at 10 µM (T-47D): 65%
inhibition at 10 µM (MALME-3M): 100%
inhibition at 10 µM (MOLT-4 [4]): 100%
inhibition at 10 µM (SF-268 [5]): 82%
inhibition at 10 µM (HT-29): 96%

COc1cc(OC)c(C2C=C(Nc3ccc(I)cc3)C(=O)N2c2ccc(I)cc2)cc1OC (stereo not shown) [3k]
GI (%) (MDA-MB-468): 44%
GI (%) (SF-295): 2%
GI (%) (UO-31): 0%
GI (%) (BT-549): 10%
GI (%) (U251 [1]): 0%
GI (%) (HOP-62): 0%
inhibition at 10 µM (M14): 0%
inhibition at 10 µM (RPMI-8226 [2]): 14%
inhibition at 10 µM (TK-10): 1%
inhibition at 10 µM (NCI-H522): 2%
inhibition at 10 µM (OVCAR-4 [3]): 3%
inhibition at 10 µM (MDA-MB-435): 0%
inhibition at 10 µM (ACHN): 0%
inhibition at 10 µM (HS 578T): 0%
inhibition at 10 µM (SR): 7%
inhibition at 10 µM (DU-145): 0%
inhibition at 10 µM (NCI-H460): 0%
inhibition at 10 µM (T-47D): 8%
inhibition at 10 µM (MALME-3M): 0%
inhibition at 10 µM (MOLT-4 [4]): 0%
inhibition at 10 µM (SF-268 [5]): 1%
inhibition at 10 µM (HT-29): 0%

O=C1C(Nc2ccc(I)cc2)=CC(c2ccco2)N1c1ccc(I)cc1 (stereo not shown) [3m]
GI (%) (MDA-MB-468): 100 ^q1%
GI (%) (SF-295): 63%
GI (%) (UO-31): 17%
GI (%) (BT-549): 17%
GI (%) (U251 [1]): 0%
GI (%) (HOP-62): 50%
inhibition at 10 µM (M14): 4%
inhibition at 10 µM (RPMI-8226 [2]): 93%
inhibition at 10 µM (TK-10): 7%
inhibition at 10 µM (NCI-H522): 31%
inhibition at 10 µM (OVCAR-4 [3]): 0%
inhibition at 10 µM (MDA-MB-435): 84%
inhibition at 10 µM (ACHN): 9%
inhibition at 10 µM (HS 578T): 39%
inhibition at 10 µM (SR): 76%
inhibition at 10 µM (DU-145): 0%
inhibition at 10 µM (NCI-H460): 0%
inhibition at 10 µM (T-47D): 49%
inhibition at 10 µM (MALME-3M): 34%
inhibition at 10 µM (MOLT-4 [4]): 70%
inhibition at 10 µM (SF-268 [5]): 79%
inhibition at 10 µM (HT-29): 6%
antibacterial activity (in words) [6]: highest antibacterial activity

O=C1C(Nc2ccc(I)cc2)=CC(c2ccc3c(c2)OCO3)N1c1ccc(I)cc1 (stereo not shown) [3n]
GI (%) (MDA-MB-468): 83%
GI (%) (SF-295): 9%
GI (%) (UO-31): 6%
GI (%) (BT-549): 3%
GI (%) (U251 [1]): 0%
GI (%) (HOP-62): 0%
inhibition at 10 µM (M14): 5%
inhibition at 10 µM (RPMI-8226 [2]): 20%
inhibition at 10 µM (TK-10): 0%
inhibition at 10 µM (NCI-H522): 26%
inhibition at 10 µM (OVCAR-4 [3]): 14%
inhibition at 10 µM (MDA-MB-435): 0%
inhibition at 10 µM (ACHN): 0%
inhibition at 10 µM (HS 578T): 25%
inhibition at 10 µM (SR): 27%
inhibition at 10 µM (DU-145): 0%
inhibition at 10 µM (NCI-H460): 3%
inhibition at 10 µM (T-47D): 22%
inhibition at 10 µM (MALME-3M): 0%
inhibition at 10 µM (MOLT-4 [4]): 20%
inhibition at 10 µM (SF-268 [5]): 25%
inhibition at 10 µM (HT-29): 5%
antibacterial activity (in words) [6]: highest antibacterial activity
